Assay results as given in ChEMBL document CHEMBL5625205, “3-Methoxy-2-phenylimidazo[1,2-b]pyridazines highly active against Mycobacterium tuberculosis and Mycobacterium marinum” (Eur J Med Chem, 2023).
In brackets after ≈: the same amount, converted by molar mass. Activity calls are given as the source filed them. The calls are words filed in the database; no cut-off is given here.

How the values were obtained:
[1] = tested on: Mycobacterium tuberculosis; assay: Antimycobacterial activity against Mycobacterium tuberculosis H37Ra assessed as inhibition of bacterial growth measured for 5 days by luminometer; assay type: functional; conditions: 120 h, time 5 day
Mycobacterium marinum = assay: Antimycobacterial activity against Mycobacterium marinum assessed as inhibition of bacterial growth measured for 5 days by luminometer; assay type: functional; conditions: 120 h, time 5 day
[2] = Octanol-water distribution coefficient, logD of the compound at pH 7.4 by HPLC analysis; assay type: physicochemical
[3] = Kinetic solubility of compound in DMSO at pH 2 incubated for 30 mins by laser nephelometry; assay type: physicochemical; conditions: read-out: Kinetic_solubility
[4] = Kinetic solubility of compound in DMSO at pH 6.5 incubated for 30 mins by laser nephelometry; assay type: physicochemical; conditions: read-out: Kinetic_solubility
[5] = Metabolic stability in mouse liver microsomes assessed as half life incubated for 60 mins in presence of NADPH; assay type: ADME, Microsome
[6] = Metabolic stability in mouse liver microsomes assessed as intrinsic clearance incubated for 60 mins in presence of NADPH; assay type: ADME, Microsome; conditions: read-out: CLH
[7] = tested on: Mycobacterium tuberculosis; assay: Antimycobacterial activity against Mycobacterium tuberculosis H37Ra infected in mouse assessed as reduction in relative light unit in lung at 300 mg/kg,po administrated once daily for 5 days; assay type: functional, organism-based; conditions: time 5.0 day
A549 = assay: Cytotoxicity against human A549 cells incubated for 48 hrs by MTT assay; assay type: functional, cell-based; conditions: A549, 48 h

COc1cccc(CSc2ccc3nc(-c4ccccc4)c(OC)n3n2)c1
MIC90 [1]: ≤ 1.66 µM
MIC90 (Mycobacterium marinum): 2.65 µM (≈ 1 µg/mL)
logD [2]: 4.8
solubility kinetic at 0.5 h [3]: 3.1 µg/mL (≈ 8.21 µM)
solubility kinetic at 0.5 h [4]: < 1.6 µg/mL
half-life [5]: < 2 min
microsomal CLint [6]: > 866 µL/min/mg
Activity [7]: inactive
IC50 (A549): > 260 µM
